Source: ChEMBL document CHEMBL4480429, “Discovery of (S)-6-methoxy-chroman-3-carboxylic acid (4-pyridin-4-yl-phenyl)-amide as potent and isoform selective ROCK2 inhibitors” (Bioorg Med Chem, 2019)

Assays:
[1] = molecular target: Rho-associated protein kinase 1 (Homo sapiens, UniProt Q13464); assay: Inhibition of ROCK1 (unknown origin) using STK2 as substrate measured after 4 hrs by HTRF assay
[2] = species: Homo sapiens; assay: Selectivity ratio of IC50 for ROCK1 (unknown origin) to IC50 for ROCK2 (unknown origin)
[3] = molecular target: Rho-associated protein kinase 2 (Homo sapiens, UniProt O75116); assay: Inhibition of ROCK2 (unknown origin) using STK2 as substrate measured after 4 hrs by HTRF assay
Rho-associated protein kinase 2, sequence (O75116 whole entry): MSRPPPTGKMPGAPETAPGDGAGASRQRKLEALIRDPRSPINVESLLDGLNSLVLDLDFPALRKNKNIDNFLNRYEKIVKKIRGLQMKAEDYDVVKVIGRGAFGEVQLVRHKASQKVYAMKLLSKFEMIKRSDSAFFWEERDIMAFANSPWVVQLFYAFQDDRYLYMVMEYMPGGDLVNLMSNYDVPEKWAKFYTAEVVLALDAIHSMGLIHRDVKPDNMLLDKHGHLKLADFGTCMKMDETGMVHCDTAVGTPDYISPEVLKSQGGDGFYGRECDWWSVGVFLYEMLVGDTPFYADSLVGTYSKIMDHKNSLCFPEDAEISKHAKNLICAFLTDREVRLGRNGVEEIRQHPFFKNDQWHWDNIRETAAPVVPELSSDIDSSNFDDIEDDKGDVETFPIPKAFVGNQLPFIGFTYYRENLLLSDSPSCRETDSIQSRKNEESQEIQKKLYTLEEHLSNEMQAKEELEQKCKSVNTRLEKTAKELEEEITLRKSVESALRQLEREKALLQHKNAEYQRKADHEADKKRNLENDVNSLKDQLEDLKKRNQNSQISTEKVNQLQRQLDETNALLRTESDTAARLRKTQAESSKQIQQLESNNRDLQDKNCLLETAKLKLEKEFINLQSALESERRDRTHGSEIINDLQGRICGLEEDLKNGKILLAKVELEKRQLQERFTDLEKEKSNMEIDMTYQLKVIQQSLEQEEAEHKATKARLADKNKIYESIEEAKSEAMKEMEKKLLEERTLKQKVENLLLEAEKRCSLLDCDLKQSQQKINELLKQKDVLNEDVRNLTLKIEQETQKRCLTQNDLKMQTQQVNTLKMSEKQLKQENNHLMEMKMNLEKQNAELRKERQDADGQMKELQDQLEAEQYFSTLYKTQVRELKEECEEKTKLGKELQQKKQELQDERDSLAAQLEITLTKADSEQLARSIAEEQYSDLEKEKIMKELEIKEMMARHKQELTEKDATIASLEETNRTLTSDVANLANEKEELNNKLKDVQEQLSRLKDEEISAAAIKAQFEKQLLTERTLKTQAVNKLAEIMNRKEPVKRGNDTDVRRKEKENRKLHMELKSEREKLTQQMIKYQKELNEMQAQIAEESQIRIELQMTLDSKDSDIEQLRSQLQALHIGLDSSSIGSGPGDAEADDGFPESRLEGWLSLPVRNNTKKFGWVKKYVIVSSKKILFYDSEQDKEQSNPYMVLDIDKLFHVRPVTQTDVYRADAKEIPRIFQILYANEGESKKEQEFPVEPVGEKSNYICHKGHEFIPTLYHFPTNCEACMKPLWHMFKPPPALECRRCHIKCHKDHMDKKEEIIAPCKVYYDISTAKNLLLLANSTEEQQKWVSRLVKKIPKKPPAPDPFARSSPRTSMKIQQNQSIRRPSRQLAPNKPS

Rho-associated protein kinase 1, sequence (Q13464 whole entry): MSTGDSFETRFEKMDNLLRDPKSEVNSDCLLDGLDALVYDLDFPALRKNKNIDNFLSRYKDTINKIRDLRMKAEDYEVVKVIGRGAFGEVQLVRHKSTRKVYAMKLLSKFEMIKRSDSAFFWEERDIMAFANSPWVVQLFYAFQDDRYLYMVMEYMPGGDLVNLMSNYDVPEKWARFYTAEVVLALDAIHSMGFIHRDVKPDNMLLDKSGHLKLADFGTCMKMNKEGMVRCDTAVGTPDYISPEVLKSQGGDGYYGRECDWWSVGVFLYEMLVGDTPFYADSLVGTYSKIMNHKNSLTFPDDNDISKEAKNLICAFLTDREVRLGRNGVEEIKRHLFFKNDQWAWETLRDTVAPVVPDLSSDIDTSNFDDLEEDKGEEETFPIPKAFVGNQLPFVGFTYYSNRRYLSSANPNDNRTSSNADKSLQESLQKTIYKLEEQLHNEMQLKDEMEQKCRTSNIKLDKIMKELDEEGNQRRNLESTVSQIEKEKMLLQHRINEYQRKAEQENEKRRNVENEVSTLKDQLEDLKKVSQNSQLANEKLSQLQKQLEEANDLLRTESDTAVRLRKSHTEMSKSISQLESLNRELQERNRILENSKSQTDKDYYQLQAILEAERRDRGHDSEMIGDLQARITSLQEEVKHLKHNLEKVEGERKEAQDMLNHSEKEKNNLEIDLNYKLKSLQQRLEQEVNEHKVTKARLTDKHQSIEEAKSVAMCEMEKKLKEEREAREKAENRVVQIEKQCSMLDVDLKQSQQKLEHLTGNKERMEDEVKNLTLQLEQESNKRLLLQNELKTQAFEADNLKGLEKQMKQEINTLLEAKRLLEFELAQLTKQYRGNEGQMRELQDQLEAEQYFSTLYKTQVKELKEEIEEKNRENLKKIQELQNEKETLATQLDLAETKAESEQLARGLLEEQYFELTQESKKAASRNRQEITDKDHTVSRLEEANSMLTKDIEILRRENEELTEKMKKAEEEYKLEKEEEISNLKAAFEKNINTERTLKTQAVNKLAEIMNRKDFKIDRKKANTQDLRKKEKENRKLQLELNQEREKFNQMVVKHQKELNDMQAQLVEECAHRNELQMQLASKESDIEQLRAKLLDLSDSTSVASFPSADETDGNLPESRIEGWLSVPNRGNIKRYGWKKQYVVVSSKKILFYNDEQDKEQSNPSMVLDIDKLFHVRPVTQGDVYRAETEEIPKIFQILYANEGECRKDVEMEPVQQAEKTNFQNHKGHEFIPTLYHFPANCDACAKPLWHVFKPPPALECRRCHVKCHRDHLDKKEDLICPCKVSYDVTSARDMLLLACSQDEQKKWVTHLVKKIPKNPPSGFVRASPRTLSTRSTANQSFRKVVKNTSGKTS

SMILES	IC50 [1]	Ratio IC50 [2]	IC50 [3]
COc1ccc2c(c1)CC(C(=O)Nc1ccc(-c3c[nH]nc3C)cc1OCCN(C)C)CO2 (stereo not given)	16.3 nM	13.6	1.2 nM
CN(C)CCOc1cc(-c2ccncc2)ccc1NC(=O)C1COc2ccc(F)cc2C1 (stereo not given)	104 nM	14.8	7 nM
Cc1ccc2c(c1)CC(C(=O)Nc1ccc(-c3ccncc3)cc1OCCN(C)C)CO2 (stereo not given)	169 nM	7	24 nM
CN(C)CCOc1cc(-c2ccncc2)ccc1NC(=O)C1COc2ccccc2C1 (stereo not given)	30 nM	4.3	7 nM
COc1ccc2c(c1)CC(C(=O)Nc1ccc(-c3cn[nH]c3)cc1OCCN(C)C)CO2 (stereo not given)	3.4 nM	–	–
COc1ccc2c(c1)C[C@@H](C(=O)Nc1ccc(-c3ccncc3)cc1OCCN(C)C)CO2	523 nM	3	172 nM
COc1ccc2c(c1)C[C@H](C(=O)Nc1ccc(-c3ccncc3)cc1OCCN(C)C)CO2	68 nM	22.7	3 nM
COc1ccc2c(c1)CC(C(=O)Nc1ccc(-c3ccncc3)cc1OCCN(C)C)CO2 (stereo not given)	170 nM	18.9	9 nM
CN(C)CCOc1cc(-c2ccncc2)ccc1NC(=O)C1COc2ccc(Cl)cc2C1 (stereo not given)	135 nM	6.1	22 nM
